This note sets out measurements from US10143666B2, “Small molecule inhibitors targeting CAG-repeat RNA toxicity in polyglutamine diseases” (The Chinese University of Hong Kong, priority 2015, dated 2018).

The assay concerns EGFPCAG78 RNA expressing SK-N-MC cells. Briefly: LDH cytotoxicity assay, EGFPCAG78 RNA expressing SK-N-MC cells. The class given is cell-based, human. To be noted: 72 hours post-transfection and treatment. As to the method:
It was next investigated whether DB213 could mitigate expanded CAG-repeat RNA-mediated toxicity in SK-N-MC human neuronal cell. […] Taken together, DB213 could suppress the expanded CAG RNA-mediated but not polyQ protein-mediate toxicity in human neuronal cell.
SK-N-MC human neuronal cells were seeded on a 24-well plate and lactate dehydrogenase enzyme activity in the cell culture medium was measured 72 hours post-transfection and drugs treatment using the Cytotox 96 non-radioactive cytotoxicity assay (Promega).

As for `CN(C)CCNC(=N)c1ccc(C(=N)NCCN(C)C)cc1.Cl.Cl.Cl.Cl` [DB213_D1], the “Cell death induced by EGFPCAG78 RNA (LDH assay)” value is given as “did not rescue the cell death”.
